Assay results reported in patent US20230111996A1, “COMPOUNDS AND CONJUGATES THEREOF” (priority 2020, published 2023).

Tests used:
Type in all cases: cell-based
SKBR3 = assay: In-vitro cytotoxicity test of compounds ([…]-GLO), SKBR3; conditions: Homo sapiens, SK-BR-3; SKBR3, 72 hours
Procedure: (§1) Killing of human tumor cell lines was evaluated in vitro using the protocol recommended in the […]-GLO® kit (Promega, Madison, Wis.). Briefly, 3×10^3 cells in […] RPMI+10% FBS were added to the inner wells of white-walled 96-well plates (Corning® Costar®, Fisher Scientific, Waltham, Mass.). The following cell lines were tested: A549, HCT116 and SKBR3. The test compounds were diluted to a 5Ax stock (125 μM) in RPMI+10% FBS. Treatments were then serially diluted 1:10 in RPMI+10% FBS. […] of this series was added to the cells in triplicate, resulting in a 9-point dose curve of test compound ranging from […] at the highest concentration to 2.5×10^−7 mM at the lowest. DMSO (vehicle) and media-only controls also were included. Plates were incubated at 37° C., 5% CO2 for 72 hours. At the end of the incubation period, […] of the Substrate Solution (Promega, Madison Wis.) was added to each well. Luminescence was measured using an EnVision Multilabel plate reader (Perkin Elmer, Waltham, Mass.). Data were analyzed and graphed using GraphPad Prism software (GraphPad Software, Inc., La Jolla, Calif.).

A549 = assay: In-vitro cytotoxicity test of compounds ([…]-GLO), A549; conditions: Homo sapiens; A549, 72 hours
Procedure: as §1

HCT116 = assay: In-vitro cytotoxicity test of compounds ([…]-GLO), HCT116; conditions: Homo sapiens, HCT-116; HCT116, 72 hours
Procedure: as §1

SMILES	IC50 (SKBR3) [nM]	IC50 (A549) [nM]	IC50 (HCT116) [nM]
CC[C@@]1(O)C(=O)OCc2c1cc1n(c2=O)Cc2c-1nc1cc(F)c(N)c3c1c2CCC3 [Compound 1, (S)-4-amino-9-ethyl-5-fluoro-9-hydroxy-1,2,3,9,12,15-hexahydro-10H,13H-benzo[de]pyrano[3′,4′:6,7]indolizino[1,2-b]quinoline-10,13-dione]	0.0958	0.248	0.164
CC[C@@]1(O)C(=O)OCc2c1cc1n(c2=O)Cc2c-1nc1cc(F)c(C)c3c1c2[C@@H](N)CC3 [Exatecan]	0.181	2.45	0.996
